We go through four molecules from US4361511A, “Benzodiazepine derivatives” (Hoffmann-La Roche Inc., priority 1980, dated 1982).

Data set [1] can be described thus: acute toxicity, single oral administration to mice. Conditions: mouse, in vivo. The source says:
(§1) The following Table contains results obtained in the previously described experiment with representative compounds of formula I. In this Table there are given for each compound in question the dosage administered (in mg/kg p.o.) as well as the percentage variation in the urine volume), the sodium excretion and the potassium excretion in comparison with the control animals (i.e. in comparison with the animals treated only with aldosterone). Moreover, the Table contains data relating to the acute toxicity of the compounds investigated (LD 50 in mg/kg in the case of a single oral administration to mice).

Data set [2] has as its system adrenalectomised rats treated with aldosterone. Put plainly: aldosterone-antagonistic activity in adrenalectomised rats (urine volume, sodium and potassium excretion over 3 hours). It is filed as in vivo, Female Holtzmann rats. Conditions: for (K+) potassium excretion in %, based on control animals / (Na+) sodium excretion in %, based on control animals / Volume (urine volume) in %, based on control animals: 1 mg/kg p.o., aldosterone 4 mmg/kg s.c. 30 min later, vs animals treated only with aldosterone, urine collected 3 h. As for the experimental part:
If compounds of formula I are administered to the animals before the treatment with aldosterone, then there is observed, in comparison to animals treated only with aldosterone (control animals), a pronounced increase of the sodium excretion (i.e. the sodium retention caused by aldosterone is antagonised), whereas the potassium excretion and the urine volume are influenced to a lesser extent.
The standard experiment is carried out as follows:
Female Holtzmann rats (150-180 g) are bilaterally adrenalectomised 70 to 74 hours before the beginning of the experiment. After the operation, the animals receive a customary rat dry feed and 0.9 percent sodium chloride solution for drinking. 16 to 17 hours before the beginning of the experiment the feed is removed from the animals, but they can subsequently drink, as before, 0.9 percent sodium chloride solution ad libitum. At the beginning of the experiment the substance to be tested as an aldosterone-antagonist is administered to the animals by means of a stomach probe. 30 minutes later the animals receive a subcutaneous injection of 4 mmg/kg of aldosterone. After a further 90 minutes, the urinary bladders of the animals are emptied by careful suprapubic pressure, whereupon the animals are placed individually in metabolic cages without food and without drink. The urine of the animals is then collected for 3 hours, whereupon their urinary bladders are once more emptied. The spontaneously excreted urine and the remaining urine obtained at the conclusion of the experiment by pressing-out the urinary bladders are collected in graduated centrifuge glasses. Sodium and potassium concentrations in the urine are determined with a flame photometer.
as §1

Setting [3] is: in comparison to untreated animals.

For the molecule `CN(C)C(=O)Nc1c(Cl)cc2c(c1Cl)C(c1ccccc1F)=NCC(=O)N2C` [Example 4, 3-[6,8-dichloro-5-(o-fluorophenyl)-2,3-dihydro-1-methyl-2-oxo-1H-1,4-benzodiazepin-7-yl]-1,1-dimethylurea], the LD50 (in general, the dose expected to kill half of the subjects tested) in data set [1] was found to be 2500 mg/kg. In data set [2], the “(K+) potassium excretion in %, based on control animals” value (“(K+) potassium excretion in %, based” for short) worked out at 160%; the “(Na+) sodium excretion in %, based on control animals” value (shortened to “(Na+) sodium excretion in %, based”) worked out at 330%; the “Volume (urine volume) in %, based on control animals” value (from here on “Volume (urine volume) in %, based”) is given as 152%.
The molecule `CN1C(=O)CN=C(c2ccccc2F)c2c1cc(Cl)c(NC(=O)N1CCN(CCO)CC1)c2Cl` [Example 5, N-[6,8-dichloro-5-(o-fluorophenyl)-2,3-dihydro-1-methyl-2-oxo-1H-1,4-benzodiazepin-7-yl]-4-(2-hydroxyethyl)-1-piperazinecarboxamide] showed a 50% lethal dose (LD50) in data set [1] of over 5000 mg/kg. Also, in data set [2], the “(K+) potassium excretion in %, based” value was 120%; the “(Na+) sodium excretion in %, based” value turned out to be 300%; the “Volume (urine volume) in %, based” value was found to be 173%.
`CN1C(=O)CN=C(c2ccccc2F)c2c1cc(Cl)c(NC(=O)NCCN1CCOCC1)c2Cl` [Example 6, 1-[6,8-dichloro-5-(o-fluorophenyl)-2,3-dihydro-1-methyl-2-oxo-1H-1,4-benzodiazepin-7-yl]-3-(2-morpholinoethyl)urea]: the 50% lethal dose (LD50) in data set [1] came to 5000 mg/kg. In addition, in data set [2], the “(K+) potassium excretion in %, based” value was 91%; the “(Na+) sodium excretion in %, based” value is given as 254%; the “Volume (urine volume) in %, based” value is listed as 183%.
For `C[C@]12CCC(=O)C=C1CC[C@@H]1[C@@H]2[C@@H](O)C[C@]2(C=O)[C@@H](C(=O)CO)CC[C@@H]12` [aldosterone, reference compound], in data set [2] (setting [3]), the “excreted urine volume after aldosterone alone” value was “reduction of the excreted urine volume”, the “potassium excretion after aldosterone alone” value is recorded as “increased potassium excretion” and the “sodium excretion after aldosterone alone” value was “pronounced reduction of the sodium excretion”.
